Data published in patent EP0696280B1, “SUBSTITUTED PYRROLIDIN-3-YL-ALKYL-PIPERIDINES USEFUL AS TACHYKININ ANTAGONISTS” (MERRELL PHARMACEUTICALS INC., priority 1993, dated 1994).
Counter-ions that a name gives are not always drawn.

Tests used:
[1] = target: T1, NK-3 receptor (Cavia porcellus, UniProt P30098); test: Antagonism of iodinated tachykinin binding to NK-3 receptor (125I-Bolton Hunter labeled Lys-4 eledoisin, guinea pig cerebral cortex membranes)
T1 construct: freshly collected guinea pig cerebral cortex; from tissue; host or cells: guinea pig cerebral cortex membranes
T1 sequence (P30098 1-440): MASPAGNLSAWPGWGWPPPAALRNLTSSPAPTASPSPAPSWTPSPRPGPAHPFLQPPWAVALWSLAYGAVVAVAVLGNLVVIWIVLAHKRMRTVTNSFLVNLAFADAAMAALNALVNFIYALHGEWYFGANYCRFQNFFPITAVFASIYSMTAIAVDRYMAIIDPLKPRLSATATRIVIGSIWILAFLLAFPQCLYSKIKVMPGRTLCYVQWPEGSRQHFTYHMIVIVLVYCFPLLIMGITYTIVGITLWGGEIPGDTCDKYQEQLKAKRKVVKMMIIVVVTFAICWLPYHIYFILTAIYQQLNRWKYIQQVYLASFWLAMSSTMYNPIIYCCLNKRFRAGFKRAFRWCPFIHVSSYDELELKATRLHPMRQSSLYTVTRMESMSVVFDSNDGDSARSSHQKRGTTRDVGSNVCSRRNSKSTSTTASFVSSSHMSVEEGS
Experimental: The NK1 receptor affinity of proposed tachykinin antagonists was devaluated in guinea pig lungs (Keystone Biologicals, Cleveland, OH), affinity for the NK2 receptor evaluated in HSKR-1 cells (which are mouse 3T3 fibroblasts expressing the human jejunal NK2 receptor) and NK-3 receptor affinity was evaluated in freshly collected guinea pig cerebral cortex. Tissues or cells were homogenized with a Polytron in 15 volumes of 50 mM Tris-HCl buffer (pH 7.4, 4°C) and centrifuged. The pellet was resuspended in Tris-HCl buffer and was centrifuged; the pellet was washed twice by resuspension. The final pellet was resuspended at a concentration of 40 mg/ml for tissues (guinea pig lung and cerebral cortex) and 20 mg/ml for cells in incubation buffer and remained at room temperature for at least 15 min prior to use. Receptor binding was initiated by addition of 250 µl membrane preparation in duplicate to 0.1 nM of the following radioligands: ^125I-Bolton Hunter Lys-3 labeled substance P; ^125iodohistidyl-1-neurokinin A; and ^125I-Bolton Hunter labeled Lys-4 eledoisin in a final volume of 500 µl of buffer containing 50 mM Tris-HCl (pH 7.4 at room temperature), 0.1% bovine serum albumin, 2 mM MnCl2, 40 µg/ml bacitracin, 4 µg/ml leupeptin and chymostatin, 1 µM thiorphan and various doses of the putative tachykinin antagonists. Incubations were performed at room temperature for 90 min (NK1 receptor assays) or 2 hr (NK2 and NK3 receptor assays); binding was terminated by addition of 50 mM Tris-HCl buffer (pH 7.4, 4°C) and filtration under vacuum through GF/B filters presoaked with 0.1% polyethyleneimine (NK1 receptor assays) or 0.5% bovine serum albumin (NK2 and NK3 receptor assays). Filter bound radioactivity was quantitated in a gamma counter. Nonspecific binding was defined as binding in the presence of 1 µM substance P, neurokinin A, or eledoisin. Specific binding was calculated by subtracting nonspecific binding from total binding. Competition of iodinated SP, NKA, or eledoisin binding by test compounds or standards was expressed as a percentage of this maximum competition. IC50 values (concentration required to inhibit 50% of receptor binding) were generated for each of the test compounds by nonlinear regression using an iterative curve fitting program (GraphPAD Inplot, San Diego, CA).

[2] = tested on: capsaicin-induced respiratory effects; test: Antagonism of capsaicin aerosol induced respiratory effects in conscious guinea pigs (whole body plethysmography); type: in vivo, guinea pig; details: for DYSPNEA ONSET / MAXIMUM PRESSURE INCREASE (mmH2O) / SRE NUMBER*: mean and SEM; for SRE NUMBER*: number of coughs/gasps during 19 min exposure
Experimental: In vivo experiments were performed using male Duncan Hartley guinea pigs (250-350g). Changes in conscious breathing patterns were monitored in four animals simultaneously using modified whole body plethysmography consisting of four small plexiglass boxes each connected to a reference box via Validyne DP 45-16 differential pressure transducers. The 4 boxes were equipped with an air supply line (also used for aerosol delivery) and an exhaust air line. Supply and exhaust lines were of the same length and narrow bore and arose from a common supply chamber and vented to a common exhaust chamber. This system was used to ensure that fluctuations in supply air and atmospheric pressure would remain in phase and be eliminated from the net signal by the differential pressure transducers. The analog pressure signals were digitalized via a Data Translation DT2821 A to D board. Data were collected at a rate of 100 samples/second/animal. Each cycle of pressure change was analyzed using the following parameters: rising and falling slope determined between minimum and maximum pressures, the ratio of rising over falling slope, and the magnitude of the change between initial trough pressure and peak cycle pressure. Using these values (and observing the animals) the pressure cycles were characterized into normal breaths, forced exhalations (apparent by abdominal heaving), significant respiratory events (SREs; usually coughs, less often sneezes or gasps which were characterized by transient, extremely large pressure increases which were distinguishable from noise) and movement/noise with a PCAT 286 running a System V UNIX operating system. Dyspnea was defined as a significant, sustained increase in plethysmograph pressure which was associated with an observable shift to labored breathing in the animal.
During the course of a typical experiment in which airway responsiveness to various bronchoconstricting agents was examined, aerosols were delivered for 19 min (0.33 ml/min) using a DeVilbiss Ultraneb 99 ultrasonic nebulizer and animals monitored during this time. Prior to nebulization, 1 min of resting breathing was collected to establish a baseline pressure. […] The vehicle for nebulization of all bronchoconstrictive agents was phosphate buffered saline (pH 7.4) which elicited no respiratory effects itself. Putative tachykinin antagonists were administered either (i.v.) 20 min prior to onset of aerosol exposure or orally 1 hour prior to onset (to guinea pigs after an overnight fast).
Capsaicin aerosol is known to promote release of the tachykinins SP and NKA from sensory nerves in the airways of guinea pigs which may then act upon NK1 and NK2 receptors, respectively to elicit respiratory effects. […]
(§1) Values are mean and SEM of data derived from number of animals indicated in parenthesis. Putative tachykinin antagonists were administered intravenously 20 min prior to initiation of capsaicin aerosol (0.001%). *SRE number indicates the number of coughs/gasps which occurred during the 19 min capsaicin exposure period.
as §1, with “by oral gavage 1 hr” for “intravenously 20 min”

[3] = 10 mg/kg intravenously 20 min prior to capsaicin aerosol (0.001%)
[4] = 25 mg/kg by oral gavage 1 hr prior to capsaicin aerosol (0.001%)
[5] = 50 mg/kg by oral gavage 1 hr prior to capsaicin aerosol (0.001%)
[6] = 100 mg/kg by oral gavage 1 hr prior to capsaicin aerosol (0.001%)

In the case of `COc1cc(C(=O)N2CCC(CCN3CCC(C(N)=O)(c4ccccc4)CC3)(c3ccc(Cl)c(Cl)c3)C2)cc(OC)c1OC` (racemic) [Example 3A, 1-[2-[3-(3,4-dichloro-phenyl-3-yl)-1-(3,4,5-trimethoxy-benzoyl)-pyrrolidin-3-yl]-ethyl] -4-phenyl-piperidine-4-carboxylic acid amide hydrochloride], the IC50 [1] is reported as 54.2 nM, the “DYSPNEA INCIDENCE” value [2, 3] is reported as 89% (7/8) and the “DYSPNEA ONSET” value [2, 3] is reported as 480 ± 80 s. The “MAXIMUM PRESSURE INCREASE (mmH2O)” value [2, 3] was 0.83 ± 0.18 mmH2O, the “SRE NUMBER*” value [2, 3] was 8.50 ± 1.9 and the “DYSPNEA INCIDENCE” value [2, 4] was 80% (8/10). The “DYSPNEA ONSET” value [2, 4] was 424 ± 120 s, the “MAXIMUM PRESSURE INCREASE (mmH2O)” value [2, 4] was 0.7 ± 0.2 mmH2O and the “SRE NUMBER*” value [2, 4] was 4.6 ± 1.0. For the same compound, the “DYSPNEA INCIDENCE” value [2, 5] was 70% (7/10), the “DYSPNEA ONSET” value [2, 5] was 434 ± 152 s and the “MAXIMUM PRESSURE INCREASE (mmH2O)” value [2, 5] was 0.4 ± 0.1 mmH2O. For the same compound, the “SRE NUMBER*” value [2, 5] was 2.8 ± 0.8, the “DYSPNEA INCIDENCE” value [2, 6] was 50% (5/10) and the “DYSPNEA ONSET” value [2, 6] was 360 ± 120 s. The “MAXIMUM PRESSURE INCREASE (mmH2O)” value [2, 6] was 0.4 ± 0.1 mmH2O and the “SRE NUMBER*” value [2, 6] was 2.1 ± 0.5.

With `COc1cc(C(=O)N2CCC(CCN3CCC(C(N)=O)(c4ccccc4)CC3)(c3ccc(Cl)c(Cl)c3)C2)cc(OC)c1OC` (stereo not drawn) [Example 3, 1-[2-[3-(3,4-dichloro-phenyl)-1-(3,4,5-trimethoxy-benzoyl)-pyrrolidin-3-yl]-ethyl]-4-phenyl-piperidine-4-carboxylic acid amide] the “affinity for NK3 receptors” value ([1]; result in words) was “high affinity”.
